# According to patent publication US20240201170A1, “MAINTENANCE AND/OR CULTURE OF TISSUE SLICES IN VITRO OR EX VIVO” (NATIONAL UNIVERSITY OF SINGAPORE, priority 2021, published 2024):
# What was measured:
# [1] = tested on: CD8+ cells in HNSCC tumour slices; assay: Flow cytometry of granzyme B expression in CD8+ cells of drug-treated HNSCC patient tumour slices; assay type: cell-based, human
# Description: Tumour slices were first manually removed from the hydrogel and digested. Dissociated cells were spun down, washed, and resuspended, and counted using a cell counter. Prior to fixing, cells were stained for surface proteins with fluorophore-conjugated antibodies and fixable dye. The cell suspension were then […]. Compensation was performed using single stains; live cells and singlets were gated by gating on a dye differentiating live and dead cells or on scatter characteristics or both.
# [2] = tested on: cancer cells within HNSCC patient tumour slices; assay: Cancer cell kill: pan-cytokeratin+ / cleaved caspase-3+ cells by dual IHC or IF in drug-treated tumour slices; assay type: cell-based, human
# Description: H&E staining and dual IHC were performed on drug-treated and untreated HNSCC slices. Briefly, slices were fixed, processed using the automatic tissue processor, and embedded in paraffin. Paraffin blocks were sectioned and H&E staining was performed. Dual IHC was performed using ChromoPlex 1 Dual Detection (Leica DS9665) with a high pH EDTA-based buffer (ER2, Leica AR9640) for 20 min. A specific cocktail of antibodies was used to identify cancer cell apoptosis, including pan-cytokeratin and cleaved caspase-3 antibody. Standard immunofluorescence were performed with active YAP1. Image acquisition was done using the slide scanning system. The images were processed with a customized analysis profile using the nuclear segmentation method to quantify the percentage of apoptotic cancer cells.
Compound,"granzyme B expression in CD8+ cells ([1]; Patient 6 (HN358), control 8.9%) [%]","granzyme B expression in CD8+ cells ([1]; Patient 7 (HN359), compared to control)","cleaved caspase-3 positivity (apoptotic) in cancer cells ([2]; Patient 6 (HN358), Day 2, controls ~11%) [%]",tumour kill in drug-treated slices ([2]; Patient 7 (HN359)),"apoptotic cancer cells ([2]; Patient 6 (HN358), controls ~5%) [%]"
pembrolizumab,5.2,slight increase,~25,no enhanced tumour kill,
N.N.[Cl][Pt][Cl] [cisplatin],,,,,~12
